Experimental data from article PMC6274786 (International Journal of Molecular Sciences, 2018).
pIC50, pKi: −log10 of the molar value. Entries after “also recorded” stand apart in the source; their conditions may differ.

Key:
[1] = molecular target: T1, human H1 receptor (Homo sapiens, UniProt P35367); test: Radioligand binding, membranes from CHO-K1 cells
T1 construct: purchased PerkinElmer; host or cells: CHO-K1 cells, stably transfected (membranes)
Procedure: Radioligand binding was performed as previously described using membranes from CHO-K1 cells stably transfected with the human H1 receptor (PerkinElmer., Waltham, MA, USA). Data were fitted to a one-site curve-fitting equation with Prism 6 (GraphPad Software, city, state, country) and Ki values were estimated from the Cheng–Prusoff equation [44].

[2] = test system: STR-induced seizure; test: Strychnine (STR)-induced seizure; assay type: in vivo, Wistar rats; details: 10 mg/kg i.p.
Procedure: (§1) In this study and according to previously used protocols, two chemical agents have been used to induce seizures, namely pentylenetetrazole (PTZ, 60 mg/kg, i.p.) and strychnine (STR, 3.5 mg/kg, i.p.). PTZ 60 mg/kg or STR 3.5 mg/kg were administered i.p. to all groups of seven rats (n = 7), that is, animals pretreated with vehicle or test compounds 1–16. Vehicle, VPA (300 mg/kg, i.p.), [26, 47, 48, 49] or test compounds 1–16 (10 mg/kg, i.p.) were systemically administered 30–45 min before PTZ (60 mg/kg, i.p.) or STR (3.5 mg/kg, i.p.) injection, and animals were directly observed for any signs of convulsion for a duration of 30 min. The observed scores as well as percent protection against generalized tonic-clonic seizure (GTCS) were graded and scaled according to the Racine scale (stage 0, no change in behavior; stage 1, stereotype mouthing, eye blinking, and/or mild facial clonus; stage 2, head nodding and/or severe facial clonus; stage 3, myoclonic jerk in forelimbs; stage 4, clonic convulsions in the forelimbs with rearing; stage 5, generalized colonic convulsions associated with loss of balance) to evaluate the protection provided by the respective test compound against seizures. The animals were divided into eighteen groups of seven rats (n = 7) and treated as follows.
(§2) (1) Control group injected with vehicle + PTZ (SAL group), (2) positive control group in which rats were injected with VPA (300 mg/kg) + PTZ (VPA group), and animals in the test groups (3)–(18) were systemically administered with test compounds 1–16 (10 mg/kg), respectively. An additional PTZ experiment was conducted using three different groups of seven rats (n = 7), the H3R ligand with the most promising protection in PTZ model was administered at doses of 2.5, 5, or 15 mg/kg, i.p. 30–45 min before the PTZ challenge. […] The same experimental procedure was followed in the STR-induced seizure model applying the reference drug VPA, which was used at a dose of 300 mg/kg, i.p. (Figure 3, Table 2).

[3] = molecular target: T2, hH4R (Homo sapiens, UniProt Q9H3N8); test: H4R radioligand displacement assay, Sf9 cell membrane preparations; assay type: binding
T2 construct: expressed in transfected cells; host or cells: Sf9 insect cells (membrane preparations)
Procedure: H4R radioligand displacement assays were performed with Sf9 cell membrane preparations, expressing the hH4R, as described previously. Assays ran in triplicates with four appropriate concentrations of the test compound. Data were analyzed by GraphPad Prism 7, using the “one-site competition” equation.

[4] = test system: PTZ-induced seizure; test: Pentylenetetrazole (PTZ)-induced seizure; assay type: in vivo, Wistar rats
Procedure: as §1, §2

[5] = test system: Hepatoma HepG2 cell line; test: Antiproliferative assay (MTS), HepG2; assay type: cell-based; details: 72 h incubation
Procedure: (§3) Human embryonic kidney (HEK)-293 cell line (ATCC CRL-1573) was kindly donated by Prof. Dr. […] (Pharmaceutical Institute, Pharmaceutical Chemistry I, University of Bonn). Hepatoma HepG2 (ATCC HB-8065) cell line was kindly donated by the Department of Pharmacological Screening, Jagiellonian University Medical College. The cell cultures' growth conditions in presence of H3R antagonist 4 were applied as described before. The cells' viability was assessed after 72 h of incubation with H3R antagonist and the following references: doxorubicin (Sigma-Aldrich) and carbonyl cyanide 3-chlorophenylhydrazone (CCCP) (Sigma-Aldrich). CellTiter 96® AQueous non-radioactive cell proliferation assay (MTS) was purchased from Promega® and added to each well in the volume of 20 μL. The cells were then incubated for 2-5 h. The microplate reader EnSpire (PerkinElmer Ltd., Waltham, MA, USA) was used to measure the absorbance at 490 nm.

[6] = Metabolic stability in rat liver microsomes; assay type: in vitro ADME; details: RLMs, MS ion fragment analysis, metabolite M-I
Procedure: Rat liver microsomes (RLMs) purchased form Sigma-Aldrich (St. Louis, MO, USA) were used for in vitro determination of compound 4’s metabolic stability. The NADPH regeneration system was purchased from Promega (Madison, WI, USA). All experiments were performed as described before. The reaction mixture was preincubated at 37 °C for 5 min, and then the reaction was started by adding 50 µL of NADPH regeneration system. The reaction was ended after 120 min by the addition of cold methanol (200 µL). The mixture was then centrifuged at 14,000 rpm for 15 min and the ultra-performance liquid chromatography–mass spectrometry (UPLC/MS) analysis of the supernatant was conducted. Ion fragment analyses were also performed for metabolic pathways’ determination.

[7] = test system: MES-induced seizure; test: Maximal electroshock (MES)-induced seizure; assay type: in vivo, Wistar rats
Excerpt: As previously described, the seizures were induced in rats with a 50 Hz alternating current of 120 mA intensity. The current was applied through ear electrodes for 1 s. Protection against the spread of MES-induced seizure was defined as the abolition of the tonic hind limb extension (THLE) component of the seizure. For the first screening of protective effects of test compounds 1–16 in the MES-induced seizure model, the animals were divided into eighteen groups of seven rats (n = 7) as follows; group (1) control group injected with vehicle (SAL), group (2) positive control group in which rats were injected with PHT at a dose of 10 mg/kg (this being the minimal dose of PHT that protected animals against the spread of MES-induced seizures without mortality), and groups (3)–(18) animals in the experimental groups were administered H3R antagonists 1–16 at a dose of 10 mg/kg. In another MES experiment in three separate groups of six rats (n = 6), H3R antagonist 4 with the most promising protection in MES model was administered at doses of 2.5, 5, or 15 mg/kg, i.p. 30–45 min before the MES challenge.

[8] = molecular target: CYP2D6 (Homo sapiens, UniProt P10635); test: Luminescent CYP2D6 P450-Glo assay
Procedure: The metabolic interactions of H3R antagonist 4 were determined by the luminescent P450-Glo™ 3A4 and 2D6 assays purchased from Promega®. All enzymatic reactions were performed according to the manufacturer protocols and as previously described. […] The luminescence was measured with a microplate reader EnSpire (PerkinElmer). The final concentration of H3R antagonist 4 was in the range of 0.1–25 µM, whereas reference inhibitory effects ranged from 0.01 µM to 10 µM. The IC50 values’ calculations were performed by GraphPad Prism™ software (version 5.01, San Diego, CA, USA).

[9] = test system: HEK-293 cell line; test: Antiproliferative assay (MTS), HEK-293; assay type: cell-based, human; details: 72 h incubation
Procedure: as §3

[10] = 10 mg/kg i.p. co-administered with RAMH 10 mg/kg i.p.

CYP2D6, sequence (P10635 whole entry): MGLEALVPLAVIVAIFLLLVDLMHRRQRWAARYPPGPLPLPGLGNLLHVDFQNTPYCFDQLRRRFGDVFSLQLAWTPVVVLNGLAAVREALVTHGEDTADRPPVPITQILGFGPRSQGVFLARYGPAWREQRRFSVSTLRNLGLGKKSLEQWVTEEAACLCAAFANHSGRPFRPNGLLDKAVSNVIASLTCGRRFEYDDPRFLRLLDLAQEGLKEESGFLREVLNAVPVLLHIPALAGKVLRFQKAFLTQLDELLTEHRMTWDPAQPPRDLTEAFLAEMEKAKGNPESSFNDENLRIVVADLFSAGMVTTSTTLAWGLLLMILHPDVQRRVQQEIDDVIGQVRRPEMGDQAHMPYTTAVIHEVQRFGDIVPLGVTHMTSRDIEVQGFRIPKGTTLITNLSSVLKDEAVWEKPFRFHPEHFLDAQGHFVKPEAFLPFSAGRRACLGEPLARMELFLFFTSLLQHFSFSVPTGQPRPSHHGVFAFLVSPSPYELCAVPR
T1 sequence (P35367 whole entry): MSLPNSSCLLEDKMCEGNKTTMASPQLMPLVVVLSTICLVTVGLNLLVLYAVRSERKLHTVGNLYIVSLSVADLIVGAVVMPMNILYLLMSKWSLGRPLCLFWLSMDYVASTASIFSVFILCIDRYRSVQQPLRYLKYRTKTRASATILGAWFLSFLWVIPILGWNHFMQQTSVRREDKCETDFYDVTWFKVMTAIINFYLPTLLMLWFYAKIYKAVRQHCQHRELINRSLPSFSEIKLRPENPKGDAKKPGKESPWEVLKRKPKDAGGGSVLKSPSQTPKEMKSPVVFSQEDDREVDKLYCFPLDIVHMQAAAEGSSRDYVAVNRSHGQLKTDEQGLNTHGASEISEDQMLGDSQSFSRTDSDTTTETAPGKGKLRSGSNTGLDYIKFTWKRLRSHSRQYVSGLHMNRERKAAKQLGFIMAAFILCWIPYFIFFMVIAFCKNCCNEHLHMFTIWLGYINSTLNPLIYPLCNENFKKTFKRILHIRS
T2 sequence (Q9H3N8 whole entry): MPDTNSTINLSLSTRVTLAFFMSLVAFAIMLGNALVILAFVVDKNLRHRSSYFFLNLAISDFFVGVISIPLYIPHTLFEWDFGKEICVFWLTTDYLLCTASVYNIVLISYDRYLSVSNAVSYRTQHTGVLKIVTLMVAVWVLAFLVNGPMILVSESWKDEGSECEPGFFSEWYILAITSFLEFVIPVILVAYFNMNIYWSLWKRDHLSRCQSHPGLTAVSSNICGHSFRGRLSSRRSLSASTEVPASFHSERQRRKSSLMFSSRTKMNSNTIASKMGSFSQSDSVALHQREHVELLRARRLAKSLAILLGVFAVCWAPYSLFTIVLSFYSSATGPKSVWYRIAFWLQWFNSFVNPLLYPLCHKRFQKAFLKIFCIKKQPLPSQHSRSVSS

## O=C(O)C(=O)O.c1ccc2cc(OCCCCCCN3CCCCCC3)ccc2c1 [Ligand 4, 1-(6-(naphthalen-2-yloxy)hexyl)azepane hydrogen oxalate]
[1]
  pKi: 5.90
[1]; selectivity toward H3Rs
  fold lower affinity at hH1- and H4Rs than at H3R: at least 10 fold
[2]
  STR-Induced Seizure % Protection against GTCS: 28.57%
  STR-Induced Seizure Average Seizure Score: 4.57 ± 0.19
[2]; 30 min observation, vs saline-treated group
  protective effect in STR-induced seizure (in words): failed to provide any appreciable protection; also recorded: failed to exhibit appreciable protection
[2]; STR 3.5 mg/kg
  STR-Induced Seizure (protection class): −
[3]
  pKi: < 5.00
[4]; 2.5 mg/kg i.p.
  PTZ-Induced Seizure % Protection against GTCS: 100%
  PTZ-Induced Seizure Average Seizure Score: 2.29 ± 0.44
[4]; 5 mg/kg i.p.
  PTZ-Induced Seizure % Protection against GTCS: 100%
  PTZ-Induced Seizure Average Seizure Score: 0.71 ± 0.31 **^,#
[4]; 10 mg/kg i.p.
  PTZ-Induced Seizure % Protection against GTCS: 100%
  PTZ-Induced Seizure Average Seizure Score: 0.00 ± 0.00 ^&
[4]; [10]
  PTZ-Induced Seizure % Protection against GTCS: 100%
  PTZ-Induced Seizure Average Seizure Score: 0.29 ± 0.16
[4]; 10 mg/kg i.p., observed over 30 min, vs saline-treated group
  protective effect in PTZ-induced seizure (in words): full protective activities
[4]; 10 mg/kg i.p., PTZ 60 mg/kg
  PTZ-Induced Seizure (protection class): ++ (high protective effect (THLE duration <1, seizure score 0))
[4]; 15 mg/kg i.p.
  PTZ-Induced Seizure % Protection against GTCS: 100%
  PTZ-Induced Seizure Average Seizure Score: 0.00 ± 0.00 ^&
[5]
  concentration with significant decrease of HepG2 proliferation/viability: 100 µM
[6]
  main metabolic pathway: double-hydroxylation at the 6-n-hexylazepane moiety
[7]; 2.5 mg/kg i.p.
  MES-Induced Seizure Average THLE: 5.83 ± 1.01 s
[7]; 5 mg/kg i.p.
  MES-Induced Seizure Average THLE (s): 2.50 ± 1.21 **^,# s
[7]; 10 mg/kg i.p.
  MES-Induced Seizure Average THLE (s): 0.57 ± 0.21 **^,$ s
[7]; [10]
  MES-Induced Seizure Average THLE: 6.17 ± 0.59 s
[7]; 10 mg/kg i.p., vs saline-treated group
  protective effect in MES-induced seizure (in words): most promising protective effect
[7]; 10 mg/kg i.p., 50 Hz, 120 mA, 1 s
  MES-Induced Seizure (protection class): ++ (high protective effect (THLE duration <1, seizure score 0))
[7]; 15 mg/kg i.p.
  MES-Induced Seizure Average THLE (s): 3.67 ± 0.94 **^,# s
[8]
  pIC50: 6.17
  fold higher CYP2D6 IC50 compared with reference drug QD: 67 fold

## COc1cccc2c1C(=O)c1c(O)c3c(c(O)c1C2=O)C[C@@](O)(C(=O)CO)C[C@@H]3O[C@H]1C[C@H](N)[C@H](O)[C@H](C)O1 [DX, doxorubicin]
[9]
  concentration with significant decrease of HEK-293 proliferation/viability: 1 µM
